Reference: ChEMBL document CHEMBL1201862, “PubChem BioAssay data set” (2004)
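The compound was tested at five concentrations on cells cultured in 96-well plates, with a 48-hour exposure period. Abbreviation: GI50, concentration required for 50% inhibition of growth.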 Active and inactive are the calls of the source. Cut-off read from the data, not from the text of the source: active = GI50 up to about 1.1 µM and inactive = higher.

Legend:
Assay in all cases: inhibition of tumour cell growth, NCI panel, 48 h
SK-MEL-28 = tested on: SK-MEL-28
OVCAR-5 = tested on: OVCAR-5
HT-29 = tested on: HT-29
NCI-H460 = tested on: NCI-H460
OVCAR-8 = tested on: OVCAR-8
TK-10 = tested on: TK-10
SR = tested on: SR
MDA-N = tested on: MDA-N
UO-31 = tested on: UO-31
SF-268 = tested on: SF-268
RPMI-8226 = tested on: RPMI-8226
UACC-257 = tested on: UACC-257
M14 = tested on: M14
SK-OV-3 = tested on: SK-OV-3
NCI/ADR-RES = tested on: NCI/ADR-RES
SN12C = tested on: SN12C
CAKI-1 = tested on: CAKI-1
IGROV-1 = tested on: IGROV-1
HCC 2998 = tested on: HCC 2998
MDA-MB-231 = tested on: MDA-MB-231

Row | Compound | GI50 (SK-MEL-28) | GI50 (OVCAR-5) | GI50 (HT-29) | GI50 (NCI-H460) | GI50 (OVCAR-8) | GI50 (TK-10) | GI50 (SR) | GI50 (MDA-N) | GI50 (UO-31) | GI50 (SF-268) | GI50 (RPMI-8226) | GI50 (UACC-257) | GI50 (M14) | GI50 (SK-OV-3) | GI50 (NCI/ADR-RES) | GI50 (SN12C) | GI50 (CAKI-1) | GI50 (IGROV-1) | GI50 (HCC 2998) | GI50 (MDA-MB-231)
1 | CN(C)CCN(/C(=N/c1ccccc1)N1CCCC1)c1ccccc1 | > 100 µM (inactive) | > 100 µM (inactive) | 5.01 µM (inactive) | 42.4 µM (inactive) | 68.7 µM (inactive) | > 100 µM (inactive) | 31.8 µM (inactive) | 4.1 µM (inactive) | 21.9 µM (inactive) | > 100 µM (inactive) | 22.6 µM (inactive) | 55.1 µM (inactive) | 43.7 µM (inactive) | > 100 µM (inactive) | 42.3 µM (inactive) | 50.5 µM (inactive) | > 100 µM (inactive) | 13.7 µM (inactive) |  | 
2 | CN(C)c1nncc2[nH]nnc12 | > 100 µM (inactive) | > 100 µM (inactive) | > 100 µM (inactive) |  | > 100 µM (inactive) | > 100 µM (inactive) | > 100 µM (inactive) | > 100 µM (inactive) | > 100 µM (inactive) |  | > 100 µM (inactive) | > 100 µM (inactive) | > 100 µM (inactive) | > 100 µM (inactive) | > 100 µM (inactive) | > 100 µM (inactive) | > 100 µM (inactive) | > 100 µM (inactive) | > 100 µM (inactive) | 
3 | CN1N(c2ccccc2)C(=O)C2=NC=C(C(=O)c3ccccc3)C(=N)C21C (stereo not given) | > 100 µM (inactive) | > 100 µM (inactive) | > 100 µM (inactive) | > 100 µM (inactive) |  | > 100 µM (inactive) | > 100 µM (inactive) | > 100 µM (inactive) | > 100 µM (inactive) | > 100 µM (inactive) | > 100 µM (inactive) | > 100 µM (inactive) | > 100 µM (inactive) | > 100 µM (inactive) |  | > 100 µM (inactive) | > 100 µM (inactive) | > 100 µM (inactive) | > 100 µM (inactive) | > 100 µM (inactive)
4 | Nn1c(Nc2ccc(S(N)(=O)=O)cc2)nnc(/C=C/c2c(O)ccc3ccccc23)c1=O | 19.3 µM (inactive) | 21.6 µM (inactive) | 19.9 µM (inactive) | 26.7 µM (inactive) | 3.08 µM (inactive) |  | 8.77 µM (inactive) | 16.3 µM (inactive) | 22.9 µM (inactive) | 42.1 µM (inactive) | 10.7 µM (inactive) | 27.5 µM (inactive) | 26.4 µM (inactive) | 24.2 µM (inactive) | 16.3 µM (inactive) | 11.6 µM (inactive) | 22.9 µM (inactive) | 0.128 µM (active) | 18.8 µM (inactive) | 
5 | Oc1c(Cl)c(Cl)c(O)c(-c2cnc(-c3ncc(-c4c(O)c(Cl)c(Cl)c(O)c4Cl)s3)s2)c1Cl | 29.6 µM (inactive) | 15.5 µM (inactive) | 35.6 µM (inactive) | 30.1 µM (inactive) | 16.7 µM (inactive) | 26.7 µM (inactive) | 35.6 µM (inactive) |  | 21.1 µM (inactive) | 22 µM (inactive) |  | 29 µM (inactive) | 19.5 µM (inactive) | 41.2 µM (inactive) | 25.3 µM (inactive) | 27.4 µM (inactive) | 20.9 µM (inactive) | 16.1 µM (inactive) | 36.6 µM (inactive) | 20.7 µM (inactive)
6 | COc1ccc(C2c3c[nH]nc3CC3CCCCC32)cc1 (stereo not given) | 18.3 µM (inactive) | 20.5 µM (inactive) | 23.4 µM (inactive) | 16.5 µM (inactive) | 17.3 µM (inactive) | 19.7 µM (inactive) | 20.9 µM (inactive) | 14.4 µM (inactive) | 14 µM (inactive) | 18.2 µM (inactive) | 19.8 µM (inactive) | 22.4 µM (inactive) | 17.6 µM (inactive) |  |  | 16.9 µM (inactive) | 14.2 µM (inactive) | 12.7 µM (inactive) | 20.3 µM (inactive) | 14 µM (inactive)
7 | C[C@]12CCC3c4ccc(O)cc4CC[C@H]3C1CC(=O)N(N)C2=O (stereo not given in full) | > 100 µM (inactive) | > 100 µM (inactive) | > 100 µM (inactive) | > 100 µM (inactive) | > 100 µM (inactive) | > 100 µM (inactive) | > 100 µM (inactive) | > 100 µM (inactive) | > 100 µM (inactive) | > 100 µM (inactive) |  | > 100 µM (inactive) | > 100 µM (inactive) | > 100 µM (inactive) |  | > 100 µM (inactive) | > 100 µM (inactive) | > 100 µM (inactive) | > 100 µM (inactive) | > 100 µM (inactive)
8 | COc1cc(NC(C)=O)ccc1C(=O)NN1C(=O)/C(=C/c2ccco2)N=C1c1ccccc1 | 28.6 µM (inactive) | > 50 µM (inactive) | 36.9 µM (inactive) |  | > 50 µM (inactive) |  | 22.5 µM (inactive) | 14.9 µM (inactive) | > 50 µM (inactive) | > 50 µM (inactive) | 13.5 µM (inactive) |  | 38.2 µM (inactive) | > 50 µM (inactive) | > 50 µM (inactive) | > 50 µM (inactive) | > 50 µM (inactive) | > 50 µM (inactive) |  | 
